Assays:
Assay in all cases: KINOMEscan competition binding
Settings in all cases: compound 1.0 µM
BMP2K (human) = BMP2K (human) (UniProt Q9NSY1)
CAMK2G (human) = CAMK2G (human) (UniProt Q13555)
CDC42BPA (human) = CDC42BPA (human) (UniProt Q5VT25)
CDK4 CCND3 (human) = CDK4 CCND3 (human) (UniProt P11802+P30281)
CHEK2 (human) = CHEK2 (human) (UniProt O96017)
CSNK1A1L (human) = CSNK1A1L (human) (UniProt Q8N752)
CSNK2A2 (human) = CSNK2A2 (human) (UniProt P19784)
DYRK1A (human) = DYRK1A (human) (UniProt Q13627)
[1] = test system: EGFR (human), P00533 [G719S]
EIF2AK2 (human) = EIF2AK2 (human) (UniProt P19525)
EPHA2 (human) = EPHA2 (human) (UniProt P29317)
[2] = test system: FLT3 (human), P36888 [R834Q]
[3] = target: JAK1 JH1 catalytic (human) (UniProt P23458)
[4] = test system: KIT (human), P10721 [L576P]
LATS1 (human) = LATS1 (human) (UniProt O95835)
MAK (human) = MAK (human) (UniProt P20794)
MAP3K2 (human) = MAP3K2 (human) (UniProt Q9Y2U5)
MAP3K5 (human) = MAP3K5 (human) (UniProt Q99683)
MAPK10 (human) = MAPK10 (human) (UniProt P53779)
MAPK6 (human) = MAPK6 (human) (UniProt Q16659)
MAPKAPK5 (human) = MAPKAPK5 (human) (UniProt Q8IW41)
MYLK (human) = MYLK (human) (UniProt Q15746)
MYLK3 (human) = MYLK3 (human) (UniProt Q32MK0)
PAK7 (human) = PAK7 (human) (UniProt Q9P286)
PDGFRA (human) = PDGFRA (human) (UniProt P16234)
[5] = test system: PIK3CA (human), P42336 [E545K]
PLK1 (human) = PLK1 (human) (UniProt P53350)
PRKCQ (human) = PRKCQ (human) (UniProt Q04759)
PTK2 (human) = PTK2 (human) (UniProt Q05397)
RPS6KA1 KD1 (human) = RPS6KA1 KD1 (human) (UniProt Q15418)
RPS6KA3 KD2 (human) = RPS6KA3 KD2 (human) (UniProt P51812)
STK38L (human) = STK38L (human) (UniProt Q9Y2H1)
SYK (human) = SYK (human) (UniProt P43405)
TEC (human) = TEC (human) (UniProt P42680)
TIE1 (human) = TIE1 (human) (UniProt P35590)
TNK1 (human) = TNK1 (human) (UniProt Q13470)
TYRO3 (human) = TYRO3 (human) (UniProt Q06418)
ULK3 (human) = ULK3 (human) (UniProt Q6PHR2)

CHEK2 (human), sequence (O96017 whole entry, looked up): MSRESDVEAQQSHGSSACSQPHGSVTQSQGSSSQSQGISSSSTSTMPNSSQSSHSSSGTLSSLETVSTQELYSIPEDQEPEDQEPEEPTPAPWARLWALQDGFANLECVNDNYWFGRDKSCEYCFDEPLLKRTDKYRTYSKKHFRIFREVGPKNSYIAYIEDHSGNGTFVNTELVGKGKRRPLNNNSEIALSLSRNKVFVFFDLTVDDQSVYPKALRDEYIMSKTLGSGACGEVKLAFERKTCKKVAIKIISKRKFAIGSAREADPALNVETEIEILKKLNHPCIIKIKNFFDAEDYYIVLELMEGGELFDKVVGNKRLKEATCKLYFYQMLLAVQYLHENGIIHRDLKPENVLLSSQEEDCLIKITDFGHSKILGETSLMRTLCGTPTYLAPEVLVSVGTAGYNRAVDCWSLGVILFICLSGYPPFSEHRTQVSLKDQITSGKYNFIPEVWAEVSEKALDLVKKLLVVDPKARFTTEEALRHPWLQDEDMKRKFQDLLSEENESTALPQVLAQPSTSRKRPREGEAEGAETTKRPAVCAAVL
CSNK2A2 (human), sequence (P19784 whole entry, looked up): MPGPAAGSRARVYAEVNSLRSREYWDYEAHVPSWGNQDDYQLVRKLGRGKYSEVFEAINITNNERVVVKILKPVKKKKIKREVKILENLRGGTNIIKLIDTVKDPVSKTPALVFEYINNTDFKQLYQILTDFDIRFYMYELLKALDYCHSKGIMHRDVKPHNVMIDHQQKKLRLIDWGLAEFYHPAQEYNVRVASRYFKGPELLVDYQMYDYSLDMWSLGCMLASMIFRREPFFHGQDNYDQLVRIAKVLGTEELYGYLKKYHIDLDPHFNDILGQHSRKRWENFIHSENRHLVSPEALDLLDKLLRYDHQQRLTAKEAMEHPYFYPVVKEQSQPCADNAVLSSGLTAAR
PTK2 (human), sequence (Q05397 whole entry, looked up): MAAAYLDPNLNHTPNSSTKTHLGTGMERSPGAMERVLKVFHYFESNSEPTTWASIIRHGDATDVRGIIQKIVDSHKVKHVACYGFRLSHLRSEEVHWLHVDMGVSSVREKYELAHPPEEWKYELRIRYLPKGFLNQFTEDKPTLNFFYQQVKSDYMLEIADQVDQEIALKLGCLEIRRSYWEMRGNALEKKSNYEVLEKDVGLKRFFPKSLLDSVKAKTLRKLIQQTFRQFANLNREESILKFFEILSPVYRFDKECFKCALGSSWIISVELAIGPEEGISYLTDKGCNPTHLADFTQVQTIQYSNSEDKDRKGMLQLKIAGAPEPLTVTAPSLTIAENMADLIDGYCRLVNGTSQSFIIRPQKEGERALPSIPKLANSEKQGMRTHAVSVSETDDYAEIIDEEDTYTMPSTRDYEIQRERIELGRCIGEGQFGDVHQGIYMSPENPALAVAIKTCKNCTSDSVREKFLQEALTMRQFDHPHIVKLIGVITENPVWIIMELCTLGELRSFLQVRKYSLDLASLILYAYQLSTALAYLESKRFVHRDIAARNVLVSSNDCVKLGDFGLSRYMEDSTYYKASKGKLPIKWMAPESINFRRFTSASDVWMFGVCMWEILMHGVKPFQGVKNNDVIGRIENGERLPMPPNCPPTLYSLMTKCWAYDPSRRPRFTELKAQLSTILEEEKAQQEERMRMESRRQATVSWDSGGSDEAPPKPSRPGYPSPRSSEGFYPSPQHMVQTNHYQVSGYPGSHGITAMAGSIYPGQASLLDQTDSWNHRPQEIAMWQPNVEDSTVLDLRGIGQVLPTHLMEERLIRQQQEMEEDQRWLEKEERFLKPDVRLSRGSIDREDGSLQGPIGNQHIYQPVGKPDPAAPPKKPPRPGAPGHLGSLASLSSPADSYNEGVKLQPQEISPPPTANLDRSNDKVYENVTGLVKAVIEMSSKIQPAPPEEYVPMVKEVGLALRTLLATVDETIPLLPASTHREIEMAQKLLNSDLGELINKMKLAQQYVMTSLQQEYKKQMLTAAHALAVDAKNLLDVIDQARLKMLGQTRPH
LATS1 (human), sequence (O95835 whole entry, looked up): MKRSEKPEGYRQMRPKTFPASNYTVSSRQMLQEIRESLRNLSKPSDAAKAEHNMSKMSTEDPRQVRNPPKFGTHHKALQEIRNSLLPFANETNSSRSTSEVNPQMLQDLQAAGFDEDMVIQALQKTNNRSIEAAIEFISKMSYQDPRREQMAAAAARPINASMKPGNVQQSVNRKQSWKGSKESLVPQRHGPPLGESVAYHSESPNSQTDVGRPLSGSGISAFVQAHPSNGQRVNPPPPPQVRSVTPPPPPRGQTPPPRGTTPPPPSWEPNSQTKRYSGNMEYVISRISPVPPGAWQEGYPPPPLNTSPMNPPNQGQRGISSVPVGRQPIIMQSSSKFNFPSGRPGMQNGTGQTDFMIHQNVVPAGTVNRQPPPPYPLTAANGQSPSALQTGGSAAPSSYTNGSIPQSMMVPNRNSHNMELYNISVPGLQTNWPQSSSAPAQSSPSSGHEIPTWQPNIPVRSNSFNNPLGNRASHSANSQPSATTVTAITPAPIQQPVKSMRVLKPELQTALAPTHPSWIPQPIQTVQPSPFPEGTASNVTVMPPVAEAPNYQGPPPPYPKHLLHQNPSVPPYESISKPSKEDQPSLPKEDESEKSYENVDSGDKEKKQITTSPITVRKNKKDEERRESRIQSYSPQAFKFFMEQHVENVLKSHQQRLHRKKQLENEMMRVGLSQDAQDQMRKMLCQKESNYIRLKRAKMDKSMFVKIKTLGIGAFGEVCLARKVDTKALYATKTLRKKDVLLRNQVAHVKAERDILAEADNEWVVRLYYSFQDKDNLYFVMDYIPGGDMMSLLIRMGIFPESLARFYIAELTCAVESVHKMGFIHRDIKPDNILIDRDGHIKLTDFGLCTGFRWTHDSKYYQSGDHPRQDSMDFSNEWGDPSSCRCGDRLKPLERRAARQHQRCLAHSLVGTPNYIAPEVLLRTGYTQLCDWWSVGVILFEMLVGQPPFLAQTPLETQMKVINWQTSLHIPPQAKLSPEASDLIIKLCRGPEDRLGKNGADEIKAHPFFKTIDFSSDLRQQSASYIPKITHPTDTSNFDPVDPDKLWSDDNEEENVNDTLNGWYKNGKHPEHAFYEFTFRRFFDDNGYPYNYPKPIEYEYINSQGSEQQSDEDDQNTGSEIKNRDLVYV
CDK4 CCND3 (human), sequence (P11802 whole entry, looked up): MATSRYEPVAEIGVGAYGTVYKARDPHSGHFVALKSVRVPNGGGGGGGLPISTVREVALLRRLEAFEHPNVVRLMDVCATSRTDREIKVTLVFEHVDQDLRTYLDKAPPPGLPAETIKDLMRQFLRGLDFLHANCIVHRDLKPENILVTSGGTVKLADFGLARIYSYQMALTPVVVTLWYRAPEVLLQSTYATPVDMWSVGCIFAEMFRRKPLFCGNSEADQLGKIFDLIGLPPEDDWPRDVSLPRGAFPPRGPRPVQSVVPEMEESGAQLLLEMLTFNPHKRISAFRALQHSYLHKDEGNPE
CDK4 CCND3 (human), sequence (P30281 whole entry, looked up): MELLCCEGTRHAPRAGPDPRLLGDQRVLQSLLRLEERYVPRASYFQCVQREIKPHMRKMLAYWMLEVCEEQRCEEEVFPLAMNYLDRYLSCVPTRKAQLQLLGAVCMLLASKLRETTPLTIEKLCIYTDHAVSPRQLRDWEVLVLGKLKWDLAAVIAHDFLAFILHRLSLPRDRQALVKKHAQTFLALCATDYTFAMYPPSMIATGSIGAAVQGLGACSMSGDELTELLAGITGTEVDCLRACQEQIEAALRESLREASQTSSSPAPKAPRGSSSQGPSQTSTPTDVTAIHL
PIK3CA (human), P42336 [E545K], sequence (P42336 whole entry E545K, looked up): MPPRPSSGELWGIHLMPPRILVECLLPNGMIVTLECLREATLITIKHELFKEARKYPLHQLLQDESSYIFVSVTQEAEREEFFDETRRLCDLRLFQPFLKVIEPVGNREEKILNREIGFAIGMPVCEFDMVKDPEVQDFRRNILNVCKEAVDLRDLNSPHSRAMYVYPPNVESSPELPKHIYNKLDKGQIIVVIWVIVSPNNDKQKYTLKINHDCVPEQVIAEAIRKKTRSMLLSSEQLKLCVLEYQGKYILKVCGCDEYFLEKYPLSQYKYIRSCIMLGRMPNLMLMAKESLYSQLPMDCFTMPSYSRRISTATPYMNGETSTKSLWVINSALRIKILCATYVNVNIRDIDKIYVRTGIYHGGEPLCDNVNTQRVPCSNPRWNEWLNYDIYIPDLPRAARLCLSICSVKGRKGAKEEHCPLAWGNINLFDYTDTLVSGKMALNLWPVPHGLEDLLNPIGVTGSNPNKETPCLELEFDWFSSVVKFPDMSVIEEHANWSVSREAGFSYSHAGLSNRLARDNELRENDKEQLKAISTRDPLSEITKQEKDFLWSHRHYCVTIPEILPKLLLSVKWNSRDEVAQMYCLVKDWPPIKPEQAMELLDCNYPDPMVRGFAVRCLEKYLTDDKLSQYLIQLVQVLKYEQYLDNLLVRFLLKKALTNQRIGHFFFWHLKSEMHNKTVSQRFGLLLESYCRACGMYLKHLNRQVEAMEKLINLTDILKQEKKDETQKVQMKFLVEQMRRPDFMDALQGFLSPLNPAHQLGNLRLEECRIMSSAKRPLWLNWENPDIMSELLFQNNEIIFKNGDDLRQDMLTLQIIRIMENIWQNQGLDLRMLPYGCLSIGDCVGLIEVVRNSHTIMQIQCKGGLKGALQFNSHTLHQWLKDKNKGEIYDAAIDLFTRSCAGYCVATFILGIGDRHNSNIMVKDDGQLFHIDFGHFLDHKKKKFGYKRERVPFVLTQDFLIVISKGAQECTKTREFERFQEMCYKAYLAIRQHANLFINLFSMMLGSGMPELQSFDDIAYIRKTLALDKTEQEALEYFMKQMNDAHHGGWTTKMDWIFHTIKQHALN

CNc1nc(Nc2ccc(C(=O)N3CCOCC3)cc2OC)ncc1Cl
kinase still bound, per cent of control (BMP2K (human)): 79%
kinase still bound, per cent of control (CAMK2G (human)): 93%
kinase still bound, per cent of control (CDC42BPA (human)): 97%
residual activity (CDK4 CCND3 (human)): 36%
kinase still bound, per cent of control (CHEK2 (human)): 26%
kinase still bound, per cent of control (CSNK1A1L (human)): 94%
kinase still bound, per cent of control (CSNK2A2 (human)): 74%
kinase still bound, per cent of control (DYRK1A (human)): 100%
kinase still bound, per cent of control [1]: 100%
kinase still bound, per cent of control (EIF2AK2 (human)): 100%
kinase still bound, per cent of control (EPHA2 (human)): 100%
kinase still bound, per cent of control [2]: 100%
kinase still bound, per cent of control [3]: 82%
kinase still bound, per cent of control [4]: 9.4%
kinase still bound, per cent of control (LATS1 (human)): 100%
kinase still bound, per cent of control (MAK (human)): 100%
kinase still bound, per cent of control (MAP3K2 (human)): 100%
kinase still bound, per cent of control (MAP3K5 (human)): 100%
kinase still bound, per cent of control (MAPK10 (human)): 42%
kinase still bound, per cent of control (MAPK6 (human)): 100%
kinase still bound, per cent of control (MAPKAPK5 (human)): 100%
residual activity (MYLK (human)): 75%
kinase still bound, per cent of control (MYLK3 (human)): 100%
kinase still bound, per cent of control (PAK7 (human)): 62%
kinase still bound, per cent of control (PDGFRA (human)): 87%
kinase still bound, per cent of control [5]: 100%
kinase still bound, per cent of control (PLK1 (human)): 100%
kinase still bound, per cent of control (PRKCQ (human)): 100%
kinase still bound, per cent of control (PTK2 (human)): 88%
kinase still bound, per cent of control (RPS6KA1 KD1 (human)): 100%
kinase still bound, per cent of control (RPS6KA3 KD2 (human)): 95%
kinase still bound, per cent of control (STK38L (human)): 86%
kinase still bound, per cent of control (SYK (human)): 100%
kinase still bound, per cent of control (TEC (human)): 100%
kinase still bound, per cent of control (TIE1 (human)): 100%
kinase still bound, per cent of control (TNK1 (human)): 66%
kinase still bound, per cent of control (TYRO3 (human)): 100%
kinase still bound, per cent of control (ULK3 (human)): 83%
